In paper PMC9808370 (Molecular cancer therapeutics, 2023):
Read-outs that look alike come from different tables or passages of the source. Values belong to the compound of their own block, whether it stands above or below them.

Experiments:
[1] = system: G3MB and SHHMB tumor cells; test: Single agent drug screen, statements over the panel of MB models; assay type: cell-based, human; settings: most potent compounds over the MB models
HD-MB03 cells [2] = test: cells; assay type: cell-based, human
HD-MB03 cells [3] = settings: HD-MB03, 1h exposure
HD-MB03 cells [4] = system: HD-MB03 cells
[5] = system: HD-MB03 intracranial xenograft; test: Pre-clinical trial, survival of intracranial tumor bearing mice; assay type: in vivo, mouse
[6] = system: MB002 intracranial xenograft; test: as above; assay type: in vivo, mouse; settings: 10 mg/kg
[7] = system: SJMBSHH-13-5634 intracranial PDX
[8] = adult patients, once a day dosing; cited from earlier work
[9] = Toxicity measurement in tumor bearing mice; assay type: in vivo, mouse
[10] = system: MYC, CYCLIN E, p27KIP1 expression in HD-MB03 cells; test: Immunoblotting; assay type: cell-based, human; settings: HD-MB03, 72h, 5μM ribociclib, 0.3μM JQ1, 0.5μM paxalisib

Structure (SMILES): Cc1csc(-c2nnc(Nc3ccc(Oc4ncccc4-c4ccnc(N)n4)cc3)c3ccccc23)c1 [AMG-900]
- IC50 (in words) [1]: picomolar to low nanomolar range

Structure (SMILES): Cc1sc2c(c1C)C(c1ccc(Cl)cc1)=N[C@@H](CC(=O)OC(C)(C)C)c1nnc(C)n1-2 [JQ1]
- IC20 (HD-MB03 cells [2]; HD-MB03, anchor concentration): 132 nM
- IC50 (HD-MB03 cells [3]): > 2000 nM

Structure (SMILES): CC1(C)OCCn2c1nc1c(N3CCOCC3)nc(-c3cnc(N)nc3)nc12 [paxalisib]
- Median survival ([5]; 10 mg/kg): 27 days
- Median survival [6]: 33.5 days
- Median survival ([7]; 10 mg/kg): 46 days
- maximum tolerated dose [8]: 45 mg/day
- body weight and body condition ([9]; MB bearing mice, paxalisib 10mg/kg alone or with ribociclib 100mg/kg): severe weight loss and had poor body condition

Structure (SMILES): CN(C)C(=O)c1cc2cnc(Nc3ccc(N4CCNCC4)cn3)nc2n1C1CCCC1 [ribociclib]
- IC20 (HD-MB03 cells [2]; Homo sapiens, HD-MB03): 5000 nM
- Median survival ([5]; 100 mg/kg): 25 days
- EC50 fold improvement (IC50 fold change of drug partner) (HD-MB03 cells [4]; Fig. 2D, 0.132μM JQ1 anchor, HD-MB03): 7.8 fold
- MYC, CYCLIN E, p27KIP1 protein expression [10]: increased expression of MYC and CYCLIN E proteins
- Median survival ([7]; 100 mg/kg): 71.5 days
- complete blood counts (in words) ([9]; MB002-bearing mice, ribociclib 100mg/kg, JQ1 50mg/kg daily): mild leukopenia

Now from value to compound:

- IC50 (in words) [1]: picomolar to low nanomolar range
Structure (SMILES): CON(C)C(=O)N1N=C(c2cc(F)ccc2F)S[C@@]1(CCCN)c1ccccc1 [ARRY-520 /filanesib, filanesib]

- IC50 (in words) [1]: picomolar to low nanomolar range
Structure (SMILES): Cc1nc(Nc2n[nH]c3c2CN(C(=O)N[C@H](CN(C)C)c2ccccc2)C3(C)C)c2sccc2n1 [PF-03758309]

- IC50 (in words) [1]: picomolar to low nanomolar range
Structure (SMILES): CCc1c2c(nc3ccc(O)cc13)-c1cc3c(c(=O)n1C2)COC(=O)[C@]3(O)CC [SN-38]

- EC50 fold improvement (IC50 fold change of drug partner) (HD-MB03 cells [4]): 12.8 fold
Structure (SMILES): CCN1CCN(Cc2ccc(Nc3ncc(F)c(-c4cc(F)c5nc(C)n(C(C)C)c5c4)n3)nc2)CC1 [abemaciclib]

- EC50 fold improvement (IC50 fold change of drug partner) (HD-MB03 cells [4]): 30.5 fold
Structure (SMILES): CC(=O)c1c(C)c2cnc(Nc3ccc(N4CCNCC4)cn3)nc2n(C2CCCC2)c1=O [palbociclib]
